Consider 25 compounds from patent US8901118B2, “Compounds and methods for kinase modulation, and indications therefor” (Plexxikon Inc., priority 2010, dated 2014).

A word on the IC50: it is the point on the concentration scale where inhibition reaches its midpoint.

Structures are written as SMILES. Bounds are passed on as bounds.

The target in this experiment is CYP3A4(BQ) (Homo sapiens, UniProt P08684). Description: CYP3A4(BQ) inhibition. The class given is in vitro ADME. Conditions: CYP3A4, substrate BQ; read-out: Cyp IC50 3A4(BQ). In short, it runs like this:
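Inhibition of human CYP3A4 (BQ substrate) was measured by fluorescence, since blocking metabolism of a known substrate lowers the fluorescent product signal. Compounds dissolved in DMSO at 100 mM were diluted into acetonitrile and then into NADPH regeneration cofactor mix, serially diluted 1:1 across 10 points, and preincubated in 384 well plates for 10 minutes at 37° C.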

Sequence of CYP3A4(BQ) (P08684 whole entry): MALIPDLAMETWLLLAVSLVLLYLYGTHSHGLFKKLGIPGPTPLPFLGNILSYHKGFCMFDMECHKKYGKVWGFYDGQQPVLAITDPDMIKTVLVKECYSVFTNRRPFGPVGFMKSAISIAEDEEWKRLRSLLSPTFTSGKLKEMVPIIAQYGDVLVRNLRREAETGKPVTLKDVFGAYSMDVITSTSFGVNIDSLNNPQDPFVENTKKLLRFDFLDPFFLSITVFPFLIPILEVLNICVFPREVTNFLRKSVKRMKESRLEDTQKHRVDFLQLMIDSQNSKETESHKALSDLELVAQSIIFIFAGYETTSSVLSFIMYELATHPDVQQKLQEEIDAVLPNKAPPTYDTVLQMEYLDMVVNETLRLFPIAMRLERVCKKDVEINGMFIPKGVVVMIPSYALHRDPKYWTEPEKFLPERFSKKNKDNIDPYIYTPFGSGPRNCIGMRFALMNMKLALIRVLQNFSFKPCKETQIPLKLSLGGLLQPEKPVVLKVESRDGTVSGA

For `Cc1ccc(Nc2ccc(C(=O)c3c[nH]c4ncc(Cl)cc34)c(F)n2)cn1` [Compound P-3044, (5-Chloro-1H-pyrrolo[2,3-b]pyridin-3-yl)-[2-fluoro-6-(6-methyl-pyridin-3-ylamino)-pyridin-3-yl]-methanone], the IC50 was more than 10 µM. Turning to `Cc1ccc(Nc2ccc(Cc3c[nH]c4ncnc(C5CC5)c34)c(F)n2)cn1` [Compound P-4030, [5-(4-Cyclopropyl-7H-pyrrolo[2,3-d]pyrimidin-5-ylmethyl)-6-fluoro-pyridin-2-yl]-(6-methyl-pyridin-3-yl)-amine], the IC50 is more than 10 µM. For `O=C(c1ccc(Nc2ccc(C3CC3)nc2)nc1F)c1c[nH]c2ncccc12` [Compound P-3052, [6-(6-Cyclopropyl-pyridin-3-ylamino)-2-fluoro-pyridin-3-yl]-(1H-pyrrolo[2,3-b]pyridin-3-yl)-methanone] the value was more than 10 µM. For `Cc1cnc2[nH]cc(C(=O)c3ccc(Nc4ccc(C)nc4)nc3F)c2c1` [Compound P-3043, [2-Fluoro-6-(6-methyl-pyridin-3-ylamino)-pyridin-3-yl]-(5-methyl-1H-pyrrolo[2,3-b]pyridin-3-yl)-methanone] the value was more than 10 µM. For `CCOc1ncnc2[nH]cc(C(=O)c3ccc(Nc4ccc(OC)nc4)nc3F)c12` [Compound P-4025, (4-Ethoxy-7H-pyrrolo[2,3-d]pyrimidin-5-yl)-[2-fluoro-6-(6-methoxy-pyridin-3-ylamino)-pyridin-3-yl]-methanone], the IC50 was more than 10 µM. For `COc1ccc(Nc2ccc(Cc3c[nH]c4ncnc(C5CC5)c34)c(F)n2)cn1` [Compound P-4023, [5-(4-cyclopropyl-7H-pyrrolo[2,3-d]pyrimidin-5-ylmethyl)-6-fluoro-pyridin-2-yl]-(6-methoxy-pyridin-3-yl)-amine] the value was more than 10 µM. For `CCn1cc(Nc2ccc(Cc3c[nH]c4ncnc(C5CC5)c34)c(F)n2)cn1` [Compound P-4036, [5-(4-Cyclopropyl-7H-pyrrolo[2,3-d]pyrimidin-5-ylmethyl)-6-fluoro-pyridin-2-yl]-(1-ethyl-1H-pyrazol-4-yl)-amine] the value was 5 to 10 µM; for `CCc1ccc(Nc2ccc(Cc3c[nH]c4ncc(C)cc34)c(F)n2)cn1` [Compound P-3048, (6-Ethyl-pyridin-3-yl)-[6-fluoro-5-(5-methyl-1H-pyrrolo[2,3-b]pyridin-3-ylmethyl)-pyridin-2-yl]-amine], more than 10 µM.

As for `COc1ccc(Nc2ccc(C(=O)c3c[nH]c4ncc(C)cc34)c(F)n2)cn1` [Compound P-3040, [2-Fluoro-6-(6-methoxy-pyridin-3-ylamino)-pyridin-3-yl]-(5-methyl-1H-pyrrolo[2,3-b]pyridin-3-yl)-methanone], the IC50 was more than 10 µM.

For the compound `CCc1ccc(Nc2ccc(C(=O)c3c[nH]c4ncc(C)cc34)c(F)n2)cn1` [Compound P-3049, [6-(6-Ethyl-pyridin-3-ylamino)-2-fluoro-pyridin-3-yl]-(5-methyl-1H-pyrrolo[2,3-b]pyridin-3-yl)-methanone], the IC50 was more than 10 µM. The value for `Cc1cnc2[nH]cc(Cc3ccc(Nc4ccc(C5CC5)nc4)nc3F)c2c1` [Compound P-3050, (6-Cyclopropyl-pyridin-3-yl)-[6-fluoro-5-(5-methyl-1H-pyrrolo[2,3-b]pyridin-3-ylmethyl)-pyridin-2-yl]-amine] was more than 10 µM; that for `CCc1ccc(Nc2ccc(Cc3c[nH]c4ncnc(C5CC5)c34)c(F)n2)cn1` [Compound P-4028, [5-(4-Cyclopropyl-7H-pyrrolo[2,3-d]pyrimidin-5-ylmethyl)-6-fluoro-pyridin-2-yl]-(6-ethyl-pyridin-3-yl)-amine] was more than 10 µM; that for `CCn1cc(Nc2ccc(C(=O)c3c[nH]c4ncnc(C5CC5)c34)c(F)n2)cn1` [Compound P-4037, (4-Cyclopropyl-7H-pyrrolo[2,3-d]pyrimidin-5-yl)-[6-(1-ethyl-1H-pyrazol-4-ylamino)-2-fluoro-pyridin-3-yl]-methanone] was 5 to 10 µM. For `Fc1nc(Nc2ccc(C3CC3)nc2)ccc1Cc1c[nH]c2ncccc12` [Compound P-3053, (6-Cyclopropyl-pyridin-3-yl)-[6-fluoro-5-(1H-pyrrolo[2,3-b]pyridin-3-ylmethyl)-pyridin-2-yl]-amine] the value was more than 10 µM.

Turning to `Cc1ccc(Nc2ccc(C(=O)c3c[nH]c4ncnc(C5CC5)c34)c(F)n2)cn1` [Compound P-4031, (4-Cyclopropyl-7H-pyrrolo[2,3-d]pyrimidin-5-yl)-[2-fluoro-6-(6-methyl-pyridin-3-ylamino)-pyridin-3-yl]-methanone], the IC50 was more than 10 µM. For `Clc1cnc2[nH]cc(Cc3cnc(NC4CCCCC4)nc3)c2c1` [Compound P-3001, [5-(5-chloro-1H-pyrrolo[2,3-b]pyridin-3-ylmethyl)-pyrimidin-2-yl]-cyclohexyl-amine] the value was more than 10 µM; for `Cc1cnc2[nH]cc(C(=O)c3ccc(Nc4ccc(C5CC5)nc4)nc3F)c2c1` [Compound P-3051, [6-(6-Cyclopropyl-pyridin-3-ylamino)-2-fluoro-pyridin-3-yl]-(5-methyl-1H-pyrrolo[2,3-b]pyridin-3-yl)-methanone], more than 10 µM; for `COc1ccc(Nc2ccc(C(=O)c3c[nH]c4ncnc(C5CC5)c34)c(F)n2)cn1` [Compound P-4022, (4-cyclopropyl-7H-pyrrolo[2,3-d]pyrimidin-5-yl)-[2-fluoro-6-(6-methoxy-pyridin-3-ylamino)-pyridin-3-yl]-methanone], more than 10 µM. For `Fc1nc(NC2CCC(F)(F)CC2)ccc1Cc1c[nH]c2ncnc(NC3CC3)c12` [Compound P-4129, N-cyclopropyl-5-[[6-[(4,4-difluorocyclohexyl)amino]-2-fluoro-3-pyridyl]methyl]-7H-pyrrolo[2,3-d]pyrimidin-4-amine] the value was less than 5 µM; for `Fc1nc(NC2CCC(F)(F)CC2)ccc1Cc1c[nH]c2ncnc(NCC(F)(F)F)c12` [Compound P-4128, 5-[[6-[(4,4-difluorocyclohexyl)amino]-2-fluoro-3-pyridyl]methyl]-N-(2,2,2-trifluoroethyl)-7H-pyrrolo[2,3-d]pyrimidin-4-amine], more than 10 µM; for `Fc1nc(Nc2ccc(C3CC3)nc2)ccc1Cc1c[nH]c2ncnc(NCC(F)(F)F)c12` [Compound P-4130, 5-[[6-[(6-cyclopropyl-3-pyridyl)amino]-2-fluoro-3-pyridyl]methyl]-N-(2,2,2-trifluoroethyl)-7H-pyrrolo[2,3-d]pyrimidin-4-amine], more than 10 µM.

Regarding `CCOc1ccc(Nc2ccc(C(=O)c3c[nH]c4ncnc(OC)c34)c(F)n2)cn1` [Compound P-4024, [6-(6-Ethoxy-pyridin-3-ylamino)-2-fluoro-pyridin-3-yl]-(4-methoxy-7H-pyrrolo[2,3-d]pyrimidin-5-yl)-methanone], the IC50 was more than 10 µM.

In the case of `CCc1ccc(Nc2ccc(C(=O)c3c[nH]c4ncnc(C5CC5)c34)c(F)n2)cn1` [Compound P-4029, (4-Cyclopropyl-7H-pyrrolo[2,3-d]pyrimidin-5-yl)-[6-(6-ethyl-pyridin-3-ylamino)-2-fluoro-pyridin-3-yl]-methanone], the IC50 is more than 10 µM.

For the compound `COc1ccc(Nc2ccc(Cc3c[nH]c4ncnc(C)c34)c(F)n2)cn1` [Compound P-4002, [6-Fluoro-5-(4-methyl-7H-pyrrolo[2,3-d]pyrimidin-5-ylmethyl)-pyridin-2-yl]-(6-methoxy-pyridin-3-yl)-amine], the IC50 was more than 10 µM. With `Cc1cnc2[nH]cc(Cc3ccc(Nc4ccc(C)nc4)nc3F)c2c1` [Compound P-3041, [6-Fluoro-5-(5-methyl-1H-pyrrolo[2,3-b]pyridin-3-ylmethyl)-pyridin-2-yl]-(6-methyl-pyridin-3-yl)-amine], the IC50 was more than 10 µM.
